Results taken from patent publication US11713338B2, “Cyclic peptides multimers targeting α-4-β-7 integrin” (priority 2016, dated 2023).

Molecular target: T1, integrin α4β7 (RPMI8866 human cells adhering to MAdCAM-1) (Homo sapiens, UniProt P13612+P26010)
T1 construct: RMP18866 cells, which express integrin α4β7; host or cells: RPMI8866
T1 sequence (P13612 34-1032): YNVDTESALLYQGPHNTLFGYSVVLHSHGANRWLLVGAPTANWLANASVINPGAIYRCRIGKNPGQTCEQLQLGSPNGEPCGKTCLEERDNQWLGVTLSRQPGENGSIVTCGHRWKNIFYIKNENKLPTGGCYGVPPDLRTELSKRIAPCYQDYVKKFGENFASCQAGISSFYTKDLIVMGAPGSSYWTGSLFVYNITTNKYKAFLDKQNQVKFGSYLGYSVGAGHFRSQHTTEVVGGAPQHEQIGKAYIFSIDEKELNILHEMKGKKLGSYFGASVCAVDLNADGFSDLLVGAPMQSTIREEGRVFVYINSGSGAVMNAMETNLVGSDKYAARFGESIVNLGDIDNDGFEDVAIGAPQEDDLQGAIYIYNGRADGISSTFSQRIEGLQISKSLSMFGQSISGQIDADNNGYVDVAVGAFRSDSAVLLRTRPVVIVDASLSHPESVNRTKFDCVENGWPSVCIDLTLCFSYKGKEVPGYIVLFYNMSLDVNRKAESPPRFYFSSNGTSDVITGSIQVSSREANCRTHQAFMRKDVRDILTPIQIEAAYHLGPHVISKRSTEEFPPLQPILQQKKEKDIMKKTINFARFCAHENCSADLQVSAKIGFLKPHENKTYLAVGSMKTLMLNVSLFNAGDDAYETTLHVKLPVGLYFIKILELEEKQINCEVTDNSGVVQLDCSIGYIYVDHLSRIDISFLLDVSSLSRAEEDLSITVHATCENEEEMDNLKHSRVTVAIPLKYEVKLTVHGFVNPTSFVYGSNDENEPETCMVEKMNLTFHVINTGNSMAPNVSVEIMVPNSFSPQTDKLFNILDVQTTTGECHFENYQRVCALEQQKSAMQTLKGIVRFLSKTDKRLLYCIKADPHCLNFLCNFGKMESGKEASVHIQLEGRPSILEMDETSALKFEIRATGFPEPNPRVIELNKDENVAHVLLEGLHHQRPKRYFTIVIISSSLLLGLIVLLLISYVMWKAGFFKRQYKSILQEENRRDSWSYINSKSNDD
T1 sequence (P26010 20-798): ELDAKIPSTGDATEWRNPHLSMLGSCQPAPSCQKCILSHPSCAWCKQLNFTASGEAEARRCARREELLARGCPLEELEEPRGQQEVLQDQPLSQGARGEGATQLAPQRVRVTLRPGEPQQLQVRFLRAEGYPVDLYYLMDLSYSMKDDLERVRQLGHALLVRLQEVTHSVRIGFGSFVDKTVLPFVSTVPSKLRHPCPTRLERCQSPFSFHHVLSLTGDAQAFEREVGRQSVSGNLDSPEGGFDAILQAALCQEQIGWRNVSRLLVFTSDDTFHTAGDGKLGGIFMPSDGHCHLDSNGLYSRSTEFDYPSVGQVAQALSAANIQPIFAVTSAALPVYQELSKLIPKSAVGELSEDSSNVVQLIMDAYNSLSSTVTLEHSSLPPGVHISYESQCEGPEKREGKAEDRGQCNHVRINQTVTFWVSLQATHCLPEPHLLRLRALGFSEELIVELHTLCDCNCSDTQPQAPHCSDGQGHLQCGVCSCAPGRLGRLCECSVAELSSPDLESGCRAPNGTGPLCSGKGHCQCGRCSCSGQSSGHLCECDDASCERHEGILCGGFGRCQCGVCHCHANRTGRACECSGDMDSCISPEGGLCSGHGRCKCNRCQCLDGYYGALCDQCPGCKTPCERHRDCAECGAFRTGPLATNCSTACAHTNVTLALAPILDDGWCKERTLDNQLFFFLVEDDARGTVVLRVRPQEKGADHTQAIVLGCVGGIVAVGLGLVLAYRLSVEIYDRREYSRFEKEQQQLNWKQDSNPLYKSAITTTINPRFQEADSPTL
Experiment: Integrin α4β7-MAdCAM cell adhesion assay (RPMI8866 cells)
Type: cell-based
Conditions: RPMI8866 cells adhering to MAdCAM; read-out: RPMI8866 Adhesion α4β7/MAdCAM IC50
Experimental: Integrin α4β7-MAdCAM Cell Adhesion Assay
RPMI8866 cells were resuspended at 10 million cells/ml in PBS containing […] and incubated at 37° C. for 30 min in a 50 ml tube. […] The plate was emptied by inverting and blotting on paper towels and washed manually twice with PBS. 100 μl PBS was then added to each well. […] To calculate the dose response, the fluorescence value of control wells not containing cells was subtracted from each test well.

Row | Structure (SMILES) | IC50 [nM]
1 | CC(C)C[C@@H]1NC(=O)[C@H]2Cc3ccccc3CN2C(=O)[C@H](Cc2cccc(CNC(=O)CCCCCCCC(=O)NCc3cccc(C[C@@H]4NC(=O)[C@@H]5CCCN5[C@H](C(=O)NC(C)(C)C)[C@H](C)NC(=O)[C@H]([C@@H](C)O)NC(=O)[C@H](CC(=O)O)NC(=O)[C@H](CC(C)C)NC(=O)[C@H]5Cc6ccccc6CN5C4=O)c3)c2)NC(=O)[C@@H]2CCCN2[C@H](C(=O)NC(C)(C)C)[C@H](C)NC(=O)[C@H]([C@@H](C)O)NC(=O)[C@H](CC(=O)O)NC1=O [Compound 529] | 47
2 | CC(C)C[C@@H]1NC(=O)c2ccc(-c3ccc(N4CCN(C(=O)CCSCCC(=O)N5CCN(c6ccc(-c7ccc8cc7CNC(=O)[C@@H]7CCCN7[C@H](C(=O)NC(C)(C)C)[C@H](C)NC(=O)[C@H]([C@@H](C)O)NC(=O)[C@H](CC(=O)O)NC(=O)[C@H](CC(C)C)NC8=O)cc6)CC5)CC4)cc3)c(c2)CNC(=O)[C@@H]2CCCN2[C@H](C(=O)NC(C)(C)C)[C@H](C)NC(=O)[C@H]([C@@H](C)O)NC(=O)[C@H](CC(=O)O)NC1=O [Compound 473] | 63
3 | CC(C)C[C@@H]1NC(=O)c2ccc(-c3ccc(N4CCN(C(=O)Cc5ccccc5C(=O)N5CCN(c6ccc(-c7ccc8cc7CNC(=O)[C@@H]7CCCN7[C@H](C(=O)NC(C)(C)C)[C@H](C)NC(=O)[C@H]([C@@H](C)O)NC(=O)[C@H](CC(=O)O)NC(=O)[C@H](CC(C)C)NC8=O)cc6)CC5)CC4)cc3)c(c2)CNC(=O)[C@@H]2CCCN2[C@H](C(=O)NC(C)(C)C)[C@H](C)NC(=O)[C@H]([C@@H](C)O)NC(=O)[C@H](CC(=O)O)NC1=O [Compound 496] | 41
4 | CC(C)C[C@@H]1NC(=O)c2ccc(-c3ccc(N4CCN(C(=O)CC(=O)N5CCN(c6ccc(-c7ccc8cc7CNC(=O)[C@@H]7CCCN7[C@H](C(=O)NC(C)(C)C)[C@H](C)NC(=O)[C@H]([C@@H](C)O)NC(=O)[C@H](CC(=O)O)NC(=O)[C@H](CC(C)C)NC8=O)cc6)CC5)CC4)cc3)c(c2)CNC(=O)[C@@H]2CCCN2[C@H](C(=O)NC(C)(C)C)[C@H](C)NC(=O)[C@H]([C@@H](C)O)NC(=O)[C@H](CC(=O)O)NC1=O [Compound 483] | 29
5 | CC(C)C[C@@H]1NC(=O)c2ccc(-c3ccc(N4CCN(C(=O)[C@H]5CCCC[C@H]5C(=O)N5CCN(c6ccc(-c7ccc8cc7CNC(=O)[C@@H]7CCCN7[C@H](C(=O)NC(C)(C)C)[C@H](C)NC(=O)[C@H]([C@@H](C)O)NC(=O)[C@H](CC(=O)O)NC(=O)[C@H](CC(C)C)NC8=O)cc6)CC5)CC4)cc3)c(c2)CNC(=O)[C@@H]2CCCN2[C@H](C(=O)NC(C)(C)C)[C@H](C)NC(=O)[C@H]([C@@H](C)O)NC(=O)[C@H](CC(=O)O)NC1=O [Compound 491] | 23
6 | CC(C)C[C@@H]1NC(=O)c2ccc(-c3ccc(N4CCN(C(=O)c5ncn(C)c5C(=O)N5CCN(c6ccc(-c7ccc8cc7CNC(=O)[C@@H]7CCCN7[C@H](C(=O)NC(C)(C)C)[C@H](C)NC(=O)[C@H]([C@@H](C)O)NC(=O)[C@H](CC(=O)O)NC(=O)[C@H](CC(C)C)NC8=O)cc6)CC5)CC4)cc3)c(c2)CNC(=O)[C@@H]2CCCN2[C@H](C(=O)NC(C)(C)C)[C@H](C)NC(=O)[C@H]([C@@H](C)O)NC(=O)[C@H](CC(=O)O)NC1=O [Compound 476] | 32
7 | CC(C)C[C@@H]1NC(=O)[C@H]2CCCCN2C(=O)[C@H](Cc2ccc(CNC(=O)CCCCC(=O)NCc3ccc(C[C@@H]4NC(=O)[C@@H]5CCCN5[C@H](C(=O)NC(C)(C)C)[C@H](C)NC(=O)[C@H]([C@@H](C)O)NC(=O)[C@H](CC(=O)O)NC(=O)[C@H](CC(C)C)NC(=O)[C@H]5CCCCN5C4=O)cc3)cc2)NC(=O)[C@@H]2CCCN2[C@H](C(=O)NC(C)(C)C)[C@H](C)NC(=O)[C@H]([C@@H](C)O)NC(=O)[C@H](CC(=O)O)NC1=O [Compound 523] | 434
8 | CC(C)C[C@@H]1NC(=O)c2ccc(-c3ccc(N4CCN(C(=O)CCCCCCC(=O)N5CCN(c6ccc(-c7ccc8cc7CNC(=O)[C@@H]7CCCN7[C@H](C(=O)NC(C)(C)C)[C@H](C)NC(=O)[C@H]([C@@H](C)O)NC(=O)[C@H](CC(=O)O)NC(=O)[C@H](CC(C)C)NC8=O)cc6)CC5)CC4)cc3)c(c2)CNC(=O)[C@@H]2CCCN2[C@H](C(=O)NC(C)(C)C)[C@H](C)NC(=O)[C@H]([C@@H](C)O)NC(=O)[C@H](CC(=O)O)NC1=O [Compound 487] | 65
9 | CC(C)C[C@@H]1NC(=O)c2ccc(-c3ccc(N4CCN(C(=O)Cc5ccc(CC(=O)N6CCN(c7ccc(-c8ccc9cc8CNC(=O)[C@@H]8CCCN8[C@H](C(=O)NC(C)(C)C)[C@H](C)NC(=O)[C@H]([C@@H](C)O)NC(=O)[C@H](CC(=O)O)NC(=O)[C@H](CC(C)C)NC9=O)cc7)CC6)cc5)CC4)cc3)c(c2)CNC(=O)[C@@H]2CCCN2[C@H](C(=O)NC(C)(C)C)[C@H](C)NC(=O)[C@H]([C@@H](C)O)NC(=O)[C@H](CC(=O)O)NC1=O [Compound 516] | 98
10 | CC(C)C[C@@H]1NC(=O)c2ccc(-c3ccc(N4CCN(C(=O)CCCCCCCCC(=O)N5CCN(c6ccc(-c7ccc8cc7CNC(=O)[C@@H]7CCCN7[C@H](C(=O)NC(C)(C)C)[C@H](C)NC(=O)[C@H]([C@@H](C)O)NC(=O)[C@H](CC(=O)O)NC(=O)[C@H](CC(C)C)NC8=O)cc6)CC5)CC4)cc3)c(c2)CNC(=O)[C@@H]2CCCN2[C@H](C(=O)NC(C)(C)C)[C@H](C)NC(=O)[C@H]([C@@H](C)O)NC(=O)[C@H](CC(=O)O)NC1=O [Compound 489] | 40
11 | CC(C)C[C@@H]1NC(=O)c2ccc(-c3ccc(N4CCN(C(=O)CCOCCOCCOCCOCCOCCOCCOCCC(=O)N5CCN(c6ccc(-c7ccc8cc7CNC(=O)[C@@H]7CCCN7[C@H](C(=O)NC(C)(C)C)[C@H](C)NC(=O)[C@H]([C@@H](C)O)NC(=O)[C@H](CC(=O)O)NC(=O)[C@H](CC(C)C)NC8=O)cc6)CC5)CC4)cc3)c(c2)CNC(=O)[C@@H]2CCCN2[C@H](C(=O)NC(C)(C)C)[C@H](C)NC(=O)[C@H]([C@@H](C)O)NC(=O)[C@H](CC(=O)O)NC1=O [Compound 510] | 87
12 | CC(C)C[C@@H]1NC(=O)c2ccc(-c3ccc(N4CCN(C(=O)c5cccc(-c6ccccc6C(=O)N6CCN(c7ccc(-c8ccc9cc8CNC(=O)[C@@H]8CCCN8[C@H](C(=O)NC(C)(C)C)[C@H](C)NC(=O)[C@H]([C@@H](C)O)NC(=O)[C@H](CC(=O)O)NC(=O)[C@H](CC(C)C)NC9=O)cc7)CC6)c5)CC4)cc3)c(c2)CNC(=O)[C@@H]2CCCN2[C@H](C(=O)NC(C)(C)C)[C@H](C)NC(=O)[C@H]([C@@H](C)O)NC(=O)[C@H](CC(=O)O)NC1=O [Compound 478] | 34
13 | CC(C)C[C@@H]1NC(=O)c2ccc(-c3ccc(N4CCN(C(=O)CCOCCOCCOCCOCCOCCC(=O)N5CCN(c6ccc(-c7ccc8cc7CNC(=O)[C@@H]7CCCN7[C@H](C(=O)NC(C)(C)C)[C@H](C)NC(=O)[C@H]([C@@H](C)O)NC(=O)[C@H](CC(=O)O)NC(=O)[C@H](CC(C)C)NC8=O)cc6)CC5)CC4)cc3)c(c2)CNC(=O)[C@@H]2CCCN2[C@H](C(=O)NC(C)(C)C)[C@H](C)NC(=O)[C@H]([C@@H](C)O)NC(=O)[C@H](CC(=O)O)NC1=O [Compound 509] | 31
